This note sets out measurements from patent publication KR20230168537A, “유파틸린을 포함하는 대장암 예방 또는 치료용 약학적 조성물” (고려대학교 산학협력단, priority 2022, dated 2023).

In general, cell viability refers to the share of living cells, or the viability signal relative to a control.

Holding throughout (format): cell-based
Series [1] has as its system HCT116. Briefly: MTT cell viability assay. On the technique in general: Formazan colour is commonly taken as a measure of viable cells.
The test system of series [2] is HT29. Description: MTT cell viability assay.
Series [3] relates to cytochrome c. Briefly: Western blot, apoptosis-related protein. For orientation: In western blotting, separated proteins are transferred to a membrane and probed.
Series [4] concerns BAK. Briefly: Western blot, apoptosis-related protein.
Series [5] has as its system HT29. Briefly: BrdU cell proliferation assay. The settings on record: Homo sapiens, HT-29; HT29, 50 μM or more, 48 h; read-out: reduction of cell proliferation.
Series [6] has as its system BCL-xL. Description: Western blot, apoptosis-related protein. The note with it: colorectal cancer cells, 24 h.
Series [7] concerns HCT116. Description: BrdU cell proliferation assay. The note with it: Homo sapiens, HCT-116; HCT116, 25 μM or more, 48 h; read-out: reduction of cell proliferation.
In series [8] the test system is HCT116. Description: TUNEL assay, DNA fragmentation. The settings on record: HCT116, 48 h.
For series [9], the system named is HCT116. Briefly: Annexin V/PI apoptosis assay. The note with it: Homo sapiens, HCT-116, 48 h, read-out: increase in apoptosis versus control.
Series [10] relates to P62. Briefly: Western blot, autophagy-related protein. The note with it: HT29.
The subject of series [11] is P70S6K. Briefly: Western blot, signalling protein phosphorylation. The note with it: HCT116 and HT29 cells.
For series [12], the system named is LC3BⅡ. Briefly: Western blot, autophagy-related protein.
Series [13] has as its system HT29. Briefly: Spheroid culture (hanging drop). The note with it: HT29, 50 μM.
In series [14] the test system is P38. Briefly: Western blot, signalling protein phosphorylation. The settings on record: HCT116 and HT29 cells.
Series [15] deals with HCT116. Briefly: Cell migration assay. The settings on record: HCT116, 24 h.
The subject of series [16] is S6. Briefly: Western blot, signalling protein phosphorylation. The settings on record: HCT116 and HT29 cells.
The subject of series [17] is HCT116. Description: ROS production (DCFH-DA).
The subject of series [18] is colorectal cancer cells (대장암세포). Description: Cell cycle analysis (PI, flow cytometry). The settings on record: 100 μM, 48 h. For orientation: In flow cytometry, cells or beads pass a laser one at a time.
Series [19] relates to HT29. Description: Cell migration assay. The settings on record: HT29, 24 h.
The test system of series [20] is HT29. Briefly: Mitochondrial membrane potential (JC-1). The settings on record: HT29, 100 μM, 48 h.
In series [21] the test system is ATG5. Description: Western blot, autophagy-related protein. The settings on record: HT29.
Series [22] concerns JNK. Briefly: Western blot, signalling protein phosphorylation. The settings on record: HCT116 and HT29 cells.
In series [23] the test system is P90RSK. Description: Western blot, signalling protein phosphorylation. The note with it: HCT116 and HT29 cells.
The test system of series [24] is eIF2α. Briefly: Western blot, ER stress-related protein. The settings on record: HCT116.
Series [25] has as its system HCT116. Description: Spheroid culture (hanging drop). The settings on record: HCT116, dose-dependent.
Series [26] relates to HT29. Briefly: Transwell invasion assay. The note with it: Homo sapiens, HT-29; HT29, 50 μM, 16 h; read-out: reduction in number of cells passing through Transwell.
Series [27] relates to IRE1α. Briefly: Western blot, ER stress-related protein.
Series [28] deals with ERK. Description: Western blot, signalling protein phosphorylation. The note with it: HCT116 and HT29 cells.
Series [29] relates to HCT116. Description: Mitochondrial membrane potential (JC-1). The note with it: 48 h.
The subject of series [30] is GRP78. Description: Western blot, ER stress-related protein. The settings on record: HCT116.
Series [31] has as its system HT29. Briefly: TUNEL assay, DNA fragmentation. The note with it: HT29, 48 h.
For series [32], the system named is HCT116. Description: Transwell invasion assay. The settings on record: Homo sapiens, HCT-116; HCT116, 50 μM, 16 h; read-out: reduction in number of cells passing through Transwell.
Series [33] concerns HT29. Description: ROS production (DCFH-DA).
The subject of series [34] is AKT. Briefly: Western blot, signalling protein phosphorylation. The note with it: HCT116 and HT29 cells.
In series [35] the test system is HT29. Description: Annexin V/PI apoptosis assay. The note with it: Homo sapiens, HT-29, 48 h, read-out: increase in apoptosis versus control.

In the case of `CCc1c2c(nc3ccc(OC(=O)N4CCC(N5CCCCC5)CC4)cc13)-c1cc3c(c(=O)n1C2)COC(=O)[C@]3(O)CC` [Irinotecan], the cell viability in [1] (human, hct116 cells, 5 µM) came to 66.6%; in series [1] (human, hct116 cells, 10 µM), 52.0%; in series [1] (human, hct116 cells, 20 µM), 43.9%; in [1] (human, hct116 cells, 40 µM), 28.9%; in series [2] (human, ht29 cells, 5 µM), 81.4%; in series [2] (human, ht29 cells, 10 µM) it was 60.9%. Further, the cell viability in [2] (human, ht29 cells, 20 µM) stood at 50.1%; in [2] (human, ht29 cells, 40 µM), 30.1%.

For `O=c1[nH]cc(F)c(=O)[nH]1` [5-FU, 5-fluorouracil], the cell viability in series [1] (HCT116, anticancer drug 5 μM alone) turned out to be 74.2%; in [1] (HCT116, anticancer drug 10 μM alone), 71.6%; in [1] (HCT116, anticancer drug 20 μM alone), 66.2%; in series [1] (HCT116, anticancer drug 40 μM alone), 55.4%; in series [2] (HT29, anticancer drug 5 μM alone) it was 69.0%; in series [2] (HT29, anticancer drug 10 μM alone) it was 64.1%. Also, the cell viability in series [2] (HT29, anticancer drug 20 μM alone) came to 56.5%; in [2] (HT29, anticancer drug 40 μM alone), 50.9%. Also, the cytochrome c expression result in series [3] (5-FU-resistant HCT116) is recorded as “발현에는 영향을 미치지 못한”. The BAK expression result in [4] (5-FU-resistant HCT116) was “발현에는 영향을 미치지 못한”.

As to `COc1ccc(-c2cc(=O)c3c(O)c(OC)c(O)cc3o2)cc1OC` [유파틸린, 5,7-Dihydroxy-3', 4', 6-trimethoxyflavone], the “reduction of cell viability” value in series [1] (HCT116, 25 μM or more) is recorded as no less than 50%; in series [2] (HT29, 100 μM or more) it was no less than 50%. For the same compound, the inhibition at 50 µM in series [5] was no less than 50%; in [26], 42%; in series [32] it was 97.2%. Besides, the BCL-xL expression entry in series [6] is “발현을 저해”. In addition, in [7], the inhibition at 25 µM is no less than 50%. In addition, the “frequency of DNA fragmentation” value in series [8] and in series [31] was “DNA 단편화의 빈도를 증가” throughout. Further, the fold induction at 50 µM in series [9] (HCT116, 50 μM) was determined as 4.4; in [17] (Homo sapiens, HCT-116, HCT116, 50 μM, 1 h, read-out: increase in ROS production) it was 15.8; in series [33] (Homo sapiens, HT-29, HT29, 50 μM, 1 h, read-out: increase in ROS production), 5.6; in series [35] (HT29, 50 μM) it was 1.6. In addition, the fold induction at 100 µM in series [9] (HCT116, 100 μM) was found to be 13.2; in [35] (HT29, 100 μM), 1.7. Further, in series [10], the P62 expression entry was “발현을 증가”. In addition, the P70S6K phosphorylation entry in series [11] is given as “인산화를 억제”. The LC3BⅡ expression entry in series [12] (HCT116) and in [12] (HT29) was “발현을 증가” each time. The spheroid density result in series [13] was “유의적으로 감소”; in series [25], “용량의존적으로 스페로이드의 전체 면적 및 밀도를 감소”. For the same compound, the P38 phosphorylation entry in series [14] is recorded as “인산화 역시 증가”. The cell migration result in [15] and in series [19] was “세포 이주성을 현저하게 감소” each time. Moreover, the S6 phosphorylation entry in series [16] is on record as “인산화를 억제”. The DCF fluorescence result in series [17] (HCT116) and in series [33] (HT29) was “형광을 증가” each time. The “proportion of S phase” value in series [18] was “S기의 비율을 감소”. The “proportion of SubG1 phase” value in series [18] is “유의적으로 증가”. The “decrease in mitochondrial membrane potential” value is 1.5 fold in series [20]; 2.0 fold in series [29] (HCT116, 50 μM); 2.6 fold in [29] (HCT116, 100 μM). The ATG5 expression result in series [21] is on record as “발현을 증가”. In [3] (colorectal cancer cells, 24 h), the cytochrome c expression result is on record as “발현을 증가”. Further, the JNK phosphorylation result in series [22] is listed as “인산화 역시 증가”. In addition, in series [23], the P90RSK phosphorylation result is “인산화를 유도”. The “phosphorylated eIF2α expression” value in [24] was “발현을 증가”. For the same compound, the spheroid total area entry in series [25] was “용량의존적으로 스페로이드의 전체 면적 및 밀도를 감소”. In [27] (HCT116), the IRE1α expression entry is reported as “발현을 증가”. In addition, the IRE1 expression result in series [27] (HT29, only IRE1 increased among the ER stress proteins) is given as “IRE1의 발현만 증가”. For the same compound, the ERK phosphorylation entry in series [28] is on record as “인산화를 유도”. Further, in series [30], the GRP78 expression entry was “발현을 증가”. In addition, in series [4] (colorectal cancer cells, 24 h), the BAK expression result was “발현을 증가”. Also, the AKT phosphorylation entry in series [34] is “인산화를 억제”.
